Laboratory results as given in patent publication US8173607B2, “Promoter for the production of hyaluronic acid containing ginsenoside compound K” (Amorepacific Corporation, priority 2002, dated 2012).

Tests used:
human skin = assay: Clinical trial of skin-care efficacy of emulsion containing compound K; format: in vivo
Method: In order to evaluate the efficacy of the cosmetic composition containing compound K, a clinical trial was conducted with forty-nine (49) healthy Korean females aged from 31 to 37 years and having facial wrinkle and fine wrinkle. They were divided into three groups by skin type: normal skin, dry skin and combination skin and used two kinds of oily-water emulsions containing 0.03% compound K or none. Before the trial, all the volunteers were evaluated for facial wrinkle and fine wrinkle with a global photodamage score. All the scores were obtained before use and 4, 8 and 12 weeks after use. Each volunteer applied test samples onto the facial skin twice per day (morning and evening) at their homes, and particularly onto the wrinkles of the eye rims. Skin-care efficacies such as facial wrinkle, fine wrinkle, hydration, elasticity, smoothness, roughness and brightness were evaluated by the volunteers and skin expert inspectors. Difference before and after using topical samples and improvement were determined by photometry evaluation with Camscope® (model DCS-105) and by image analysis of silicon replica with Skin-Visiometer SV 600 (Courage & Khazaka, Germany).

HAS3 = assay: Quantitative RT-PCR of HAS3 mRNA in HaCaT cells; format: cell-based, human; settings: 1 μM compound K, 24 or 48 hours
Method: (§1) The cells were cultured in Dulbecco's modified Eagle's medium (DMEM) supplemented with 10% fetal bovine serum (HyClone), sodium bicarbonate (3.6 g/l) and antibiotics of streptomycin (100 μg/ml) and penicillin (100 U/ml) (Life Technologies, Inc.) at 37° C. in a humidified atmosphere containing 5% CO2 and 95% air. The culture was changed with fresh medium every 3 days. On reaching the maximum cell-density, the cells were recultured at a 1:5 division ratio. 48 hours before treatment with compound K, the cells were seeded into a tissue culture flask at 1×10^5 cells per 75 cm^2 and cultured in the medium with 10% fetal bovine serum for 24 hours. Subsequently, the cells were cultured in the serum-free medium for another 24 hours and then in fresh serum-free medium supplemented with 1 to 5 μM of compound K for 3, 6, 12, 24 or 48 hours. […]
(§2) HaCaT cells and HDF cells were washed twice with phosphate buffered saline (PBS) (Life Technologies, Inc.), and total cellular RNA was isolated with TRizol® reagent (GibcoBRL Life Technologies, Grand Island, N.Y.) according to manufacturer's instructions. RNA concentration was measured by spectrophotometry and RNA integrity was checked by agarose gel electrophoresis.
(§3) Quantitated total RNA was reverse transcribed, then RT-PCR was performed using HAS1-, HAS2- and HAS3-specific primers. […]

HaCaT cells = assay: Hyaluronic acid production in cultured HaCaT cells, bHABP immunocytochemical staining; format: cell-based, human; settings: 1 μM compound K, immunocytochemical method
Method: (§4) HaCaT and HDF cells were washed with PBS then fixed in a fixative with 2% paraformaldehyde(v/v) and 0.5% glutaraldehyde(v/v) at room temperature for 20 min. After fixation, the cells were washed three times for 2 min each with 0.1 M sodium phosphate buffer (pH7.4), then blocked in 1% bovine serum albumin (w/v) containing 0.1% Triton X-100 (v/v) in the same buffer at room temperature for 30 min. Hyaluronan staining was carried out with a specific probe of biotinylated hyaluronan binding protein (bHABP) (Seikagaku, Tokyo, Japan). The bHABP probe, diluted to 5 μg/ml in 3% bovine serum albumin (w/v), was added to the fixed cells and was incubated overnight at 4° C. After washing, avidin-fluorescein isothocyanate (FITC) was added.
(§5) HaCaT cells (FIG. 3a, FIG. 3b) and HDF cells (FIG. 3c, FIG. 3d) were cultured in the presence of 1 μM compound K (FIG. 3b, FIG. 3d) or in the absence of compound K (FIG. 3a, FIG. 3c).

HAS2 gene [1] = assay: Quantitative RT-PCR of HAS2 mRNA in keratinocyte cell line HaCaT; format: cell-based, human; settings: HaCaT cells; for increase in HAS2 transcription: 1 μM compound K
Method: The cells were cultured in Dulbecco's modified Eagle's medium (DMEM) supplemented with 10% fetal bovine serum (HyClone), sodium bicarbonate (3.6 g/l) and antibiotics of streptomycin (100 μg/ml) and penicillin (100 U/ml) (Life Technologies, Inc.) at 37° C. in a humidified atmosphere containing 5% CO2 and 95% air. The culture was changed with fresh medium every 3 days. On reaching the maximum cell-density, the cells were recultured at a 1:5 division ratio. 48 hours before treatment with compound K, the cells were seeded into a tissue culture flask at 1×10^5 cells per 75 cm^2 and cultured in the medium with 10% fetal bovine serum for 24 hours. Subsequently, the cells were cultured in the serum-free medium for another 24 hours and then in fresh serum-free medium supplemented with 1 to 5 μM of compound K for 3, 6, 12, 24 or 48 hours. As a control, the cells were cultured in the medium supplemented with 0.01% vehicle (dimethylsulfoxide, DMSO). In the control, no effect of DMSO on cell growth and differentiation was observed.
as §2
Quantitated total RNA was reverse transcribed, then RT-PCR was performed using HAS1-, HAS2- and HAS3-specific primers. In brief, 4 μg of total RNA was reverse transcribed in 25 μl of reaction mixture containing 2.5 U/μl Superscript II reverse transcriptase (Invitrogen, Carlsbad, Calif.), 1 U/μg RNase inhibitor, 5 mM MgCl2, 50 mM KCl, 10 mM Tris-HCl (pH8.3), 2.5 μM oligo(dT) primers and 1 mM dNTPs. The reaction mixture was gently incubated at 42° C. for 60 min, to be subjected to reverse transcription. Then, the reverse transcriptase was inactivated by heating at 85° C. for 5 min.
Subsequently, 5 μl of the resulting mixture was subjected to PCR. […]

HDF cells = assay: Hyaluronic acid production in cultured HDF cells, bHABP immunocytochemical staining; format: cell-based, human; settings: 1 μM compound K, immunocytochemical method
Method: as §4, §5

HAS1 = assay: Quantitative RT-PCR of HAS1 mRNA in HaCaT cells; format: cell-based, human; settings: 1 μM compound K, 24 or 48 hours
Method: as §1, §2, §3

HAS2 gene [2] = assay: Quantitative RT-PCR of HAS2 mRNA in fibroblast cell line HDF; format: cell-based, human; settings: HDF cells, treatment with compound K for 24 hours, in comparison with no treatment
Method: as §1, §2, §3

hairless mouse skin = assay: Production of hyaluronic acid in hairless mouse skin, bHABP immunohistochemical staining and image analysis; format: in vivo; settings: hairless mouse back skin, 1%(w/v) compound K solution topically
Method: Male albino Hos:hr-1 mice, 30 weeks old, were purchased from Biogenomics (Seoul, Korea) and had unrestricted access to standard rodent chow and water. After one week of acclimation under controlled conditions of 24±2° C. and 55±10% humidity, 200 μl of 1%(w/v) compound K solution in the vehicle (1,3-BG:ethanol-7:3) was topically applied onto the back of the mouse two times for 2 days. 24 hours after the final administration, each skin sample was collected.
Hyaluronan staining was carried out with bHABP(Seikagaku). Each skin sample was fixed with 2% formaldehyde and 0.5% glutaraldehyde in PBS, embedded and sectioned. After deparaffinization, sections were incubated in 0.3% H2O2 in methanol at room temperature for 30 min, washed with PBS, then blocked in 1% bovine serum albumin. Subsequently the sections were incubated in […] bHABP in PBS at 4° C. then, after washing, incubated with streptoavidin-peroxidase, diluted to 1/300 in PBS at room temperature, for 30 min. […]
Stained slides were quantitatively characterized via digital image analysis using ImagePro-Plus (Media Cybernetics, Silver Spring, Md.). […] Staining score is determined by the following formula 1: Intensity of stain X (total stained area/total area) Equation 1
One-way ANOVA with post-hog Duncan test was performed using SigmaStat (SPSS Inc., Chicago, Ill.). Data were expressed as the mean±SEM. […]

[3] = emulsion with 0.03% compound K, after 8 weeks of use

SMILES: CC(C)=CCC[C@](C)(OCC1OC(CO)C(O)C(O)C1O)C1CC[C@]2(C)C1C(O)CC1C3(C)CCC(O)C(C)(C)C3CCC12C (stereo partly drawn) [compound K, 20-O-β-D-glucopyranosyl-20(S)-protopanaxadiol]
- wrinkle, hydration, elasticity, smoothness and brightness of human skin (human skin; compound K-containing topical composition applied onto the human skin): improved
- volunteers answering improvement in skin brightness (human skin; emulsion with 0.03% compound K): 68%
- volunteers answering improvement in skin elasticity (human skin; emulsion with 0.03% compound K): 68%
- volunteers answering improvement in skin roughness (human skin; emulsion with 0.03% compound K): 94%
- volunteers answering improvement in skin smoothness (human skin; emulsion with 0.03% compound K): 92%
- volunteers answering increase in skin moisturizing capacity (human skin; emulsion with 0.03% compound K): 88%
- facial wrinkle and fine wrinkle, global photodamage score by skin expert inspectors (human skin; emulsion with 0.03% compound K twice per day on facial skin, 12 weeks of use versus initial values and control emulsion): statistically significant decrease
- total wrinkle in skin replica analysis (human skin; [3]): decreased statistically significantly
- volunteers giving positive and affirmative estimate (human skin; [3]): 76%
- volunteers giving positive and affirmative estimate (human skin; emulsion with 0.03% compound K, after 12 weeks of use): 92%
- effect on HAS3 mRNA level (HAS3): did not influence
- production of hyaluronic acid in cultured cells (HaCaT cells): increased production of hyaluronic acid was confirmed
- increase in HAS2 transcription (HAS2 gene [1]; 24 hours incubation): about 3 times
- increase in HAS2 transcription (HAS2 gene [1]; 48 hours incubation): about 5 times
- increase in HAS2 gene expression (HAS2 mRNA) versus control (HAS2 gene [1]; treatment with compound K for 24 hours, in comparison with no treatment): 3 times
- production of hyaluronic acid in cultured cells (HDF cells): increased production of hyaluronic acid was confirmed
- effect on HAS1 mRNA level (HAS1): did not influence
- increase in HAS2 gene expression (HAS2 mRNA) versus control (HAS2 gene [2]): 2.5 times
- hyaluronic acid in skin (immunohistochemical staining) (hairless mouse skin): significantly increased
